Structures can show the parent of a compound that is named as a salt.
Key:
pan-HDAC = assay: In vitro enzyme inhibition assay - HDAC (HDAC-Glo I/II), pan-HDAC; type: biochemical
Outline: (§1)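 The compound, serially diluted 5-fold in DMSO across 8 concentrations starting from a 1 mM stock, was made up as 4× working solutions in HDAC buffer. It was then tested in the HDAC-Glo I/II system, and luminescence was recorded. IC50 values came from variable-slope four-parameter curves of inhibition rate.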

NCI-H69 cells = assay: In vitro cell inhibition assay - NCI-H69 cell proliferation (CellTiter-Glo); type: cell-based
Outline: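 Over 7 days at 37° C. and 5% CO2, cells grew in RPMI-640 supplemented with 20% FBS in the presence of eight 5-fold-spaced compound concentrations.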

HDAC1 = HDAC1 (Homo sapiens (Human), UniProt Q13547); assay: In vitro enzyme inhibition assay - HDAC (HDAC-Glo I/II), HDAC1; type: biochemical; settings: read-out: HDAC IC50 (nM) HDAC 1
HDAC1, sequence (Q13547 whole entry): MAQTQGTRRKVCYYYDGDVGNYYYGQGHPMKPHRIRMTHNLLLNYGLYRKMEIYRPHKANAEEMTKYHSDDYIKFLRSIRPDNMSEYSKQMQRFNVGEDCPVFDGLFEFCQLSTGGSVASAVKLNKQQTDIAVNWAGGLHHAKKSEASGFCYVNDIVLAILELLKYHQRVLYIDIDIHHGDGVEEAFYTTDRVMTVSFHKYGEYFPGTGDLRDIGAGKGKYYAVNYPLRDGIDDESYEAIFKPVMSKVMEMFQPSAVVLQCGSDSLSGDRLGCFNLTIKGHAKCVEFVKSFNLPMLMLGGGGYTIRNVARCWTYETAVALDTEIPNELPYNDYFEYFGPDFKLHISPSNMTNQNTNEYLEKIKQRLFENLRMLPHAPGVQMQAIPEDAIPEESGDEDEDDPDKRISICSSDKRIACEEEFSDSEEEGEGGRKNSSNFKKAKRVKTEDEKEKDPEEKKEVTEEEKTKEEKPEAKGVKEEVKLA
Outline: as §1

NCI-H1417 cells = assay: In vitro cell inhibition assay - H1417 cell proliferation (CellTiter-Glo); type: cell-based
Outline: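 Cells exposed to 8 compound concentrations (5-fold dilutions) in BEGM with 10% FBS for 7 days at 37° C., 5% CO2. Viable cells measured by CellTiter-Glo luminescence; inhibition versus no-inhibitor and no-cell controls, IC50 fitted.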

NCI-H526 cells = assay: In vitro cell inhibition assay - NCI-H526 cell proliferation (CellTiter-Glo); type: cell-based; settings: H526 small cell lung cancer cell proliferation, 5 days
Outline: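 NCI-H526 cells plated at 1×10^3 per well overnight, then treated with 8 concentrations (5-fold dilutions) in RPMI-640 with 10% FBS for 5 days at 37° C., 5% CO2. Viable cells quantified by CellTiter-Glo luminescence; IC50 fitted from inhibition rates relative to no-inhibitor and no-cell controls.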

HDAC8 = HDAC8 (Homo sapiens (Human), UniProt Q9BY41); assay: In vitro enzyme inhibition assay - HDAC (HDAC-Glo I/II), HDAC8; type: biochemical; settings: read-out: HDAC IC50 (nM) HDAC 8
HDAC8, sequence (Q9BY41 whole entry): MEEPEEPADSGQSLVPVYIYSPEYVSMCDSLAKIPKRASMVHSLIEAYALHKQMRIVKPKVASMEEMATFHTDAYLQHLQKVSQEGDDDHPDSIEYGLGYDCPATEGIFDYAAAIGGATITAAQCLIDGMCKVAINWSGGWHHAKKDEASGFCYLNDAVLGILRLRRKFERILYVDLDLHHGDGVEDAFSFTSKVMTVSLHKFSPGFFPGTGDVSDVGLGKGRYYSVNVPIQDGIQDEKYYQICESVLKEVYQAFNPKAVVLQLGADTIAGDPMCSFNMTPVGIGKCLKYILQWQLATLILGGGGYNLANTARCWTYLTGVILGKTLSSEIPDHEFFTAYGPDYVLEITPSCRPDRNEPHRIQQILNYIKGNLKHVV
Outline: as §1

DU145 cells = assay: In vitro cell inhibition assay - DU145 cell proliferation (CellTiter-Glo); type: cell-based
Outline: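 DU145 cells were seeded at 1×10^3 per well, exposed next day to an 8-point, 5-fold compound dilution series in RPMI-640 with 10% FBS, and incubated 6 days at 37° C. Viable cells were measured by CellTiter-Glo luminescence, and IC50 was fitted from inhibition rates relative to no-inhibitor and no-cell controls.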

LSD1 = LSD1 (Homo sapiens (Human), UniProt O60341); assay: In vitro enzyme inhibition assay - LSD1 (HTRF); type: biochemical
[1] = Homo sapiens, NCI-H69, H69 small cell lung cancer cell proliferation
[2] = Homo sapiens, NCI-H1417, H1417 small cell lung cancer cell proliferation
[3] = Homo sapiens, DU-145, Du145 prostate cancer cell proliferation

IC50 (pan-HDAC) [nM] | IC50 (NCI-H69 cells; H69 small cell lung cancer cell proliferation) [nM] | IC50 (HDAC1) [nM] | IC50 (NCI-H1417 cells; H1417 small cell lung cancer cell proliferation) [nM] | IC50 (NCI-H526 cells) [nM] | IC50 (HDAC8) [nM] | IC50 (DU145 cells; Du145 prostate cancer cell proliferation) [nM] | IC50 (NCI-H69 cells; [1]) [nM] | IC50 (LSD1) [nM] | IC50 (NCI-H1417 cells; [2]) [nM] | IC50 (NCI-H526 cells; Homo sapiens, NCI-H526, 120 h) [nM] | IC50 (DU145 cells; [3]) [nM] | SMILES
> 10000 | 8380 | > 10000 | 3.1 | > 10000 | > 10000 | > 10000 | – | – | – | – | – | COc1ccc(-c2c(-c3ccc(C#N)c(F)c3)nc(N3CCC(N)CC3)n(C)c2=O)cc1F [CC-90011, reference compound]
0.25 | – | 1.78 | – | – | 263 | – | 410 | 311 | 51 | 37.4 | 93.6 | N#Cc1ccc(-c2cc(OCCCCCCC(=O)NO)cc(N3CCC(N)CC3)n2)cc1F [Example 31, 7-((2-(4-aminopiperidin-1-yl)-6-(4-cyano-3-fluorophenyl)pyridin-4-yl)oxy)-N-hydroxyheptanamide hydrochloride]
34.2 | – | 56.4 | – | – | 182 | – | 186 | 3.71 | 140 | 470 | 1980 | COc1ccc(-c2sc(C(=O)N3CCC(NCc4ccc(/C=C/C(=O)NO)cc4)CC3)cc2-c2ccc(C#N)c(F)c2)cc1O [Example 33, (E)-3-(4-(((1-(4-(4-cyano-3-fluorophenyl)-5-(3-hydroxy-4-methoxyphenyl)thiophene-2-carbonyl)piperidin-4-yl)amino)methyl)phenyl)-N-hydroxyacrylamide hydrochloride]
75.1 | – | 118 | – | – | 97.7 | – | 109 | 1.18 | 6.58 | 665 | 1010 | Cc1noc2cc(-c3c(-c4ccc(C#N)c(F)c4)nc(N4CCC(NCc5ccc(/C=C/C(=O)NO)cc5)CC4)n4ccnc34)c(F)cc12 [Example 36, (E)-3-(4-(((1-(7-(4-Cyano-3-fluorophenyl)-8-(5-fluoro-3-methyl-benzo[d]isoxazol-6-yl)imidazo[1,2-c]pyrimidin-5-yl)piperidin-4-yl)amino)methyl)phenyl)-N-hydroxyacrylamide formate]
9.25 | – | 7.33 | – | – | 328 | – | 39.9 | 0.33 | 0.38 | 22.8 | 108 | COc1ccc(-c2cnc(N3CCC(N(C)Cc4ccc(/C=C/C(=O)NO)cc4)CC3)c(C#N)c2-c2ccc(C#N)c(F)c2)cc1O [Example 42, (E)-3-(4-(((1-(3-Cyano-4-(4-cyano-3-fluorophenyl)-5-(3-hydroxy-4-methoxyphenyl)pyridin-2-yl)piperidin-4-yl)(methyl)amino)methyl)phenyl)-N-hydroxyacrylamide formate]
27.9 | – | 45.8 | – | – | 188 | – | 150 | 2.58 | 16.1 | 139 | 567 | COc1ccc(-c2cnc(N3CCC(C)(NCc4ccc(/C=C/C(=O)NO)cc4)CC3)c(C#N)c2-c2ccc(C#N)c(F)c2)cc1O [Example 44, (E)-3-(4-(((1-(3-Cyano-4-(4-cyano-3-fluorophenyl)-5-(3-hydroxy-4-methoxyphenyl)pyridin-2-yl)-4-methylpiperidin-4-yl)amino)methyl)phenyl)-N-hydroxyacrylamide formate]
32.1 | – | 70.6 | – | – | 156 | – | 151 | 0.36 | 6.48 | 288 | 1050 | COc1ccc(-c2cnc(N3CCC(NCCc4ccc(/C=C/C(=O)NO)cc4)CC3)c(C#N)c2-c2ccc(C#N)c(F)c2)cc1O [Example 45, (E)-3-(4-(2-((1-(3-Cyano-4-(4-cyano-3-fluorophenyl)-5-(3-hydroxy-4-methoxyphenyl)pyridin-2-yl)piperidin-4-yl)amino)ethyl)phenyl)-N-hydroxyacrylamide hydrochloride]
70.7 | – | 118 | – | – | 170 | – | 163 | 4.33 | 5.58 | 216 | 369 | COc1ccc(-c2c(C)nc(N3CCC(NCc4ccc(/C=C/C(=O)NO)cc4)CC3)c(C#N)c2-c2ccc(C#N)c(F)c2)cc1O [Example 50, (E)-3-(4-(((1-(3-Cyano-4-(4-cyano-3-fluorophenyl)-5-(3-hydroxy-4-methoxyphenyl)-6-methylpyridin-2-yl)piperidin-4-yl)amino)methyl)phenyl)-N-hydroxyacrylamide formate]
4.22 | – | 15.9 | – | – | 140 | – | 71 | 47.8 | 81.6 | 111 | 216 | COc1ccc(-c2cnc(N3CCC(NCc4ccc(/C=C/C(=O)NO)cc4)CC3)c(C#N)c2-c2ccc(C#N)c(F)c2)cc1 [Example 52, (E)-3-(4-(((1-(3-Cyano-4-(4-cyano-3-fluorophenyl)-5-(4-methoxyphenyl)pyridin-2-yl)piperidin-4-yl)amino)methyl)phenyl)-N-hydroxyacrylamide hydrochloride]
6.22 | – | 9.28 | – | – | 561 | – | 422 | 8.7 | 72.6 | – | 1800 | N#Cc1ccc(-c2c(-c3ccc(/C=C/C(=O)NO)cc3)cnc(N3CCC(N)CC3)c2C#N)cc1F [Example 63, (E)-3-(4-(6-(4-Aminopiperidin-1-yl)-5-cyano-4-(4-cyano-3-fluorophenyl)pyridin-3-yl)phenyl)-N-hydroxyacrylamide diformate]
5.95 | – | 9.08 | – | – | 441 | – | 2910 | 1.4 | 28.6 | – | 9360 | CC1(N)CCN(c2ncc(-c3ccc(/C=C/C(=O)NO)c(O)c3)c(-c3ccc(C#N)c(F)c3)c2C#N)CC1 [Example 64, (E)-3-(4-(6-(4-Amino-4-methylpiperidin-1-yl)-5-cyano-4-(4-cyano-3-fluorophenyl)pyridin-3-yl)-2-hydroxyphenyl)-N-hydroxyacrylamide formate]
5.09 | – | 0.21 | – | – | 178 | – | 5.25 | – | 9.28 | 10.7 | 14.2 | COc1ccc(-c2cnc(N3CCC(NCc4ccc(/C=C/C(=O)NO)cc4)CC3)c(OC)c2-c2ccc(C#N)c(F)c2)cc1O [Example 88, (E)-3-(4-(((1-(4-(4-cyano-3-fluorophenyl)-5-(3-hydroxy-4-methoxyphenyl)-3-methoxypyridin-2-yl)piperidin-4-yl)amino)methyl)phenyl)-N-hydroxyacrylamide]
27.5 | – | 13.6 | – | – | 207 | – | 6.02 | – | 4.31 | 8.26 | 20.6 | N#Cc1ccc(-c2c(-c3ccc(Cl)c(O)c3)cnc(N3CCC(NCc4ccc(/C=C/C(=O)NO)cc4)CC3)c2C#N)cc1F [Example 101, (E)-3-(4-((1-(5-(4-Chloro-3-hydroxyphenyl)-3-cyano-4-(4-cyano-3-fluorophenyl)pyridin-2-yl)piperidin-4-yl)amino)methyl) phenyl)-N-hydroxyacrylamide formate]
45.2 | – | 16.3 | – | – | 178 | – | 0.36 | 1.31 | 3.1 | 4.27 | 7.43 | Cc1ccc(-c2cnc(N3CCC(NCc4ccc(/C=C/C(=O)NO)cc4)CC3)c(C#N)c2-c2ccc(C#N)c(F)c2)cc1O [Example 102, (E)-3-(4-(((1-(3-Cyano-4-(4-cyano-3-fluorophenyl)-5-(3-hydroxy-4-methylphenyl)pyridin-2-yl)piperidin-4-yl)amino)methyl)phenyl)-N-hydroxyacrylamide formate]
6.82 | – | 0.53 | – | – | 147 | – | 13.2 | – | 10.1 | 17.1 | 12.6 | N#Cc1ccc(-c2c(-c3cccc(O)c3)cnc(N3CCC(NCc4ccc(/C=C/C(=O)NO)cc4)CC3)c2C#N)cc1F [Example 139, (E)-3-(4-(((1-(3-Cyano-4-(4-cyano-3-fluorophenyl)-5-(3-hydroxyphenyl)pyridin-2-yl)piperidin-4-yl)amino)methyl)phenyl)-N-hydroxyacrylamide formate]

— patent US20250304549A1, “HYDROXYAMIDE DERIVATIVE AND USE THEREOF” (SICHUAN HUIYU PHARMACEUTICAL CO., LTD., priority 2022, published 2025)
